We go through 5 compounds from patent US9012398B2, “Acylated exendin-4 compounds” (priority 2006, dated 2015).

For orientation: EC50 means the concentration needed to bring the measured effect to its halfway point.

The target of one data set is T1, human GLP-1 receptor (Homo sapiens, UniProt P43220).
T1 construct: expressed in transfected cells; host or cells: BHK cells, clone BHK-467-12A; plasma membrane preparation
Kind of data set: Functional receptor assay: cAMP formation in plasma membranes of BHK cells expressing the cloned human GLP-1 receptor (GLP1cAMPma). The format is biochemical. The gist of the method: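 cAMP formation was read by AlphaScreen after a 3 h room-temperature incubation of agonist with human GLP-1 receptor BHK membranes (6 μg/well). The pH 7.4 buffer held 10 mM MgCl2, 1 mM ATP, 1 μM GTP and 0.5 mM IBMX. EC50 values were estimated by four-parameter logistic regression.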
For orientation: Cyclic AMP is a second messenger, typically raised through Gs and lowered through Gi signalling.

The subject of a further data set is db/db mice. Put plainly: Pharmacodynamic study using db/db mice (blood glucose after subcutaneous dosing). The format is in vivo. To be noted: 30 nmol/kg subcutaneous. Here is the method: The efficacy and duration of action were measured after dosing of 30 nmol/kg to db/db mice. Male db/db mice were shipped from Taconic, Denmark at the age of 8-10 weeks. From the time of arrival, the mice were housed under standard conditions but at 24° C. The mice were kept 10 per cage until experimentation with free access to standard chow (Altromin, Brogaarden APS., Denmark) and tap water at a normal day: light cycle (light on at 6 am). […] After this, the mice were euthanized.
After an acclimatisation period of 1 week, the blood glucose was measured by sampling from the tail tip capillary. In brief, 5 μl blood was sampled in heparinised glass capillary tubes and immediately suspended in 250 μl EBIO buffer solution (Eppendorf, Germany) in an 1.5 ml Eppendorf tube. The blood glucose concentration was measured by the glucose oxidase method at the EBIO Plus Auto analyser (Eppendorf, Germany).
The cut of value for blood glucose was 10 mM. When evaluating the mice, it was considered essential, that all 42 mice entering the experiment had blood glucose values above 10 mM, but also that the inter-mice variance was small. Therefore, if many mice were not severely diabetic, whereas some were, the start up of experiments was postponed one week and new basal blood glucose measurements were made.
Based on the basal blood glucose values, the mice were allocated to 7 groups of n=6 with matching group mean blood glucose values.
On the day of testing the basal blood glucose morning values were assessed as described above and the basal body weight of each mouse was assessed. A time 0, the compound was dosed subcutaneously in the scruff of the neck (dosing volume app. 300 μl/50 g mouse).
The blood glucose values were followed up to 48 hours (time 1, 3, 6, 24 and 48 h) and the terminal body weight was assessed.
All data were entered into Graphpad Prism where mean blood glucose and mean delta body weights were calculated.

The nature of data set [1]: Chemical stability of solubilised peptide at 40° C., impurities monitored by RP-HPLC/UPLC. The class given is physicochemical. To be noted: 2.5 weeks, 100 nmol peptide in 1 ml phosphate buffered saline, pH 7.4. The procedure: The chemical stability of solubilised acylated exendin-4 compounds were monitored by RP-HPLC following incubation at […]
The formation of exendin analogue related impurities relative to control samples stored in the freezer were monitored with a Waters UPLC system. Samples were applied to Acquity UPLC BEH C18 (1.7 μm) 2.1×50 mm column and eluted at a flow rate of 0.9 ml/min with linear stepwise gradients of acetonitrile in 0.1% trifluoroacetic acid (from 5 to 100% acetonitrile for 10 min, and from 100 to 5% acetonitrile for 1 min). The column was heated to 30 C and detection was performed at 214 nm.

Setting [2] is: cAMP, membranes with human GLP-1 receptor, mean value, read-out: GLP1cAMPma (3693) [EC50 (nM)] Mean Value.

SMILES strings stand for the structures. Like-named read-outs stand apart in the source and are kept apart here. Starred links: 1 amine or outer side, 2 acyl side, 3 side chain; linkers in the order of their positions; H or OH if unused. Residues, ends and D or L forms follow the SMILES beside them. Groups on a side chain read outwards from the residue. *: point of attachment. Palmitoyl(16-(5-tetrazolyl)) = O=C(CCCCCCCCCCCCCCCc1nnn[nH]1)*; C18 diacid = O=C(O)CCCCCCCCCCCCCCCCC(=O)*; γGlu = O=C(O)[C@H](CCC(=O)[*:2])N[*:1]; Stearoyl = CCCCCCCCCCCCCCCCCC(=O)*; AEEA = NCCOCCOCC(=O)O

T1 sequence (P43220 24-463): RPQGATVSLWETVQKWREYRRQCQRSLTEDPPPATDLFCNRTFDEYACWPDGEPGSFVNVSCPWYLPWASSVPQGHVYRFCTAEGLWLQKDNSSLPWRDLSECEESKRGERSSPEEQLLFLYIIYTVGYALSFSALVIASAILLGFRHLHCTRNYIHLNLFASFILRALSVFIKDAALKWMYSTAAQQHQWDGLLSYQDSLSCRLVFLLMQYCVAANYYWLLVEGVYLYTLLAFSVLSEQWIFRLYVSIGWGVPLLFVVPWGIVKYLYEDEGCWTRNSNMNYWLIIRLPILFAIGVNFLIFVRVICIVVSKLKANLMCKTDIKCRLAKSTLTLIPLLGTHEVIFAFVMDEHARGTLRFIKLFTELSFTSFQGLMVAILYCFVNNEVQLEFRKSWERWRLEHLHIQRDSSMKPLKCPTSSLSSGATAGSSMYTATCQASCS

Compound `CCCCCCCCCCCCCCCCCC(=O)NCCOCCOCC(=O)NCCOCCOCC(=O)NCCOCCOCC(=O)NCCCC[C@H](NC(=O)[C@@H](NC(=O)[C@H](C)NC(=O)[C@H](CCC(=O)O)NC(=O)[C@H](CCC(=O)O)NC(=O)[C@H](CCC(=O)O)NC(=O)[C@H](CC(C)C)NC(=O)[C@H](CCC(N)=O)NC(=O)[C@H](CCCNC(=N)N)NC(=O)[C@H](CO)NC(=O)[C@H](CC(C)C)NC(=O)[C@H](CC(=O)O)NC(=O)[C@H](CO)NC(=O)[C@@H](NC(=O)[C@H](Cc1ccccc1)NC(=O)[C@@H](NC(=O)CNC(=O)[C@H](CCC(=O)O)NC(=O)CNC(=O)[C@@H](N)Cc1c[nH]cn1)[C@@H](C)O)[C@@H](C)O)C(C)C)C(=O)N[C@@H](CC(C)C)C(=O)N[C@@H](Cc1ccccc1)C(=O)N[C@H](C(=O)N[C@@H](CCC(=O)O)C(=O)N[C@@H](Cc1c[nH]c2ccccc12)C(=O)N[C@@H](CC(C)C)C(=O)N[C@@H](CCCNC(=N)N)C(=O)N[C@@H](CCCNC(=N)N)C(=O)NCC(=O)NCC(=O)N1CCC[C@H]1C(=O)N[C@@H](CO)C(=O)N[C@@H](CO)C(=O)NCC(=O)N[C@@H](C)C(=O)N1CCC[C@H]1C(=O)N1CCC[C@H]1C(=O)N1CCC[C@H]1C(=O)N[C@@H](CO)C(N)=O)[C@@H](C)CC` [Example 5, N-ε^20-(2-(2-(2-(2-(2-(2-(2-(2-(2-(Octadecanoylamino)ethoxy)ethoxy)acetylamino)ethoxy)ethoxy)acetyl-amino)ethoxy)ethoxy)acety))[Arg^12,27,28,Leu^14,Lys^20 Exendin-4(1-39)amide] (H-HGEGTFTSDLSRQLEEEAVK([AEEA-AEEA-AEEA-Stearoyl])LFIEWLRRGGPSSGAPPPS-NH2; N-terminus assumed) yielded an EC50 at human GLP-1 receptor of 0.007 nM. Besides, in the data set with db/db mice, the “Delta AUC for blood glucose after 30 nmol/kg in db/db mice, 48 hours” value (shortened to “Delta AUC for blood glucose”) was −410 ± 111, *** mM × hour.

As to `CC[C@H](C)[C@H](NC(=O)[C@H](Cc1ccccc1)NC(=O)[C@H](CC(C)C)NC(=O)[C@H](CCCNC(=N)N)NC(=O)[C@@H](NC(=O)[C@H](C)NC(=O)[C@H](CCC(=O)O)NC(=O)[C@H](CCC(=O)O)NC(=O)[C@H](CCC(=O)O)NC(=O)[C@H](CC(C)C)NC(=O)[C@H](CCC(N)=O)NC(=O)[C@H](CCCNC(=N)N)NC(=O)[C@H](CO)NC(=O)[C@H](CC(C)C)NC(=O)[C@H](CC(=O)O)NC(=O)[C@H](CO)NC(=O)[C@@H](NC(=O)[C@H](Cc1ccccc1)NC(=O)[C@@H](NC(=O)CNC(=O)[C@H](CCC(=O)O)NC(=O)CNC(=O)[C@@H](N)Cc1c[nH]cn1)[C@@H](C)O)[C@@H](C)O)C(C)C)C(=O)N[C@@H](CCC(=O)O)C(=O)N[C@@H](Cc1c[nH]c2ccccc12)C(=O)N[C@@H](CC(C)C)C(=O)N[C@@H](CCCNC(=N)N)C(=O)N[C@@H](CC(N)=O)C(=O)NCC(=O)NCC(=O)N1CCC[C@H]1C(=O)N[C@@H](CO)C(=O)N[C@@H](CO)C(=O)N[C@@H](CCCCNC(=O)COCCOCCNC(=O)CC[C@H](NC(=O)CCCCCCCCCCCCCCCc1nnn[nH]1)C(=O)O)C(=O)N[C@@H](C)C(=O)N1CCC[C@H]1C(=O)N1CCC[C@H]1C(=O)N1CCC[C@H]1C(=O)N[C@@H](CO)C(N)=O` [Example 9] (H-HGEGTFTSDLSRQLEEEAVRLFIEWLRNGGPSSK([AEEA-γGlu-Palmitoyl(16-(5-tetrazolyl))])APPPS-NH2), on human GLP-1 receptor (setting [2]), the EC50 was 0.61 nM. In the data set with db/db mice, the “Delta AUC for blood glucose” value is −395 ± 222, *** mM × hour.

On human GLP-1 receptor, `CC[C@H](C)[C@H](NC(=O)[C@H](Cc1ccccc1)NC(=O)[C@H](CC(C)C)NC(=O)[C@H](CCCNC(=N)N)NC(=O)[C@@H](NC(=O)[C@H](C)NC(=O)[C@H](CCC(=O)O)NC(=O)[C@H](CCC(=O)O)NC(=O)[C@H](CCC(=O)O)NC(=O)[C@H](CC(C)C)NC(=O)[C@H](CCC(N)=O)NC(=O)[C@H](CCCNC(=N)N)NC(=O)[C@H](CO)NC(=O)[C@H](CC(C)C)NC(=O)[C@H](CC(=O)O)NC(=O)[C@H](CO)NC(=O)[C@@H](NC(=O)[C@H](Cc1ccccc1)NC(=O)[C@@H](NC(=O)CNC(=O)[C@H](CCC(=O)O)NC(=O)CNC(=O)[C@@H](N)Cc1c[nH]cn1)[C@@H](C)O)[C@@H](C)O)C(C)C)C(=O)N[C@@H](CCC(=O)O)C(=O)N[C@@H](Cc1c[nH]c2ccccc12)C(=O)N[C@@H](CC(C)C)C(=O)N[C@@H](CCCNC(=N)N)C(=O)N[C@@H](CC(N)=O)C(=O)NCC(=O)NCC(=O)N1CCC[C@H]1C(=O)N[C@@H](CO)C(=O)N[C@@H](CO)C(=O)N[C@@H](CCCCNC(=O)COCCOCCNC(=O)CCCCCCCCCCCCCCCCC(=O)O)C(=O)N[C@@H](C)C(=O)N1CCC[C@H]1C(=O)N1CCC[C@H]1C(=O)N1CCC[C@H]1C(=O)N[C@@H](CO)C(N)=O` [Example 8, N-ε^34-(2-(2-(2-(17-carboxyheptadecanoylamino)ethoxy)ethoxy)acetyl) [Leu^14,Arg^12,27,Lys^34]Exendin-4(1-39)amide] (H-HGEGTFTSDLSRQLEEEAVRLFIEWLRNGGPSSK([AEEA-C18 diacid])APPPS-NH2) showed an EC50 of 0.44 nM. Also, the “Delta AUC for blood glucose” value in the data set with db/db mice is listed as −500 ± 122, *** mM × hour.

For the compound `CCCCCCCCCCCCCCCCCC(=O)NCCOCCOCC(=O)NCCOCCOCC(=O)NCCOCCOCC(=O)NCCCC[C@H](NC(=O)[C@@H](NC(=O)[C@H](C)NC(=O)[C@H](CCC(=O)O)NC(=O)[C@H](CCC(=O)O)NC(=O)[C@H](CCC(=O)O)NC(=O)[C@H](CC(C)C)NC(=O)[C@H](CCC(N)=O)NC(=O)[C@H](CCCNC(=N)N)NC(=O)[C@H](CO)NC(=O)[C@H](CC(C)C)NC(=O)[C@H](CC(=O)O)NC(=O)[C@H](CO)NC(=O)[C@@H](NC(=O)[C@H](Cc1ccccc1)NC(=O)[C@@H](NC(=O)CNC(=O)[C@H](CCC(=O)O)NC(=O)CNC(=O)[C@@H](N)Cc1c[nH]cn1)[C@@H](C)O)[C@@H](C)O)C(C)C)C(=O)N[C@@H](CC(C)C)C(=O)N[C@@H](Cc1ccccc1)C(=O)N[C@H](C(=O)N[C@@H](CCC(=O)O)C(=O)N[C@@H](Cc1c[nH]c2ccccc12)C(=O)N[C@@H](CC(C)C)C(=O)N[C@@H](CCCNC(=N)N)C(=O)N[C@@H](CCC(N)=O)C(=O)NCC(=O)NCC(=O)N1CCC[C@H]1C(=O)N[C@@H](CO)C(=O)N[C@@H](CO)C(=O)NCC(=O)N[C@@H](C)C(=O)N1CCC[C@H]1C(=O)N1CCC[C@H]1C(=O)N1CCC[C@H]1C(=O)N[C@@H](CO)C(N)=O)[C@@H](C)CC` [Example 14, N-ε^20-(2-(2-(2-(2-(2-(2-(2-(2-(2-(Octadecanoylamino)ethoxy)ethoxy)acetylamino)ethoxy)ethoxy)acetyl-amino)ethoxy)ethoxy)acetyl))[Arg^12,27,Gln^28,Leu^14,Lys^20 Exendin-4(1-39)amide] (H-HGEGTFTSDLSRQLEEEAVK([AEEA-AEEA-AEEA-Stearoyl])LFIEWLRQGGPSSGAPPPS-NH2; N-terminus assumed), the EC50 at human GLP-1 receptor (setting [2]) turned out to be 0.017 nM. Also, the “Formation rate of peptide related impurities at 40° C.” value in data set [1] was 1.5 %/week.

`CCCCCCCCCCCCCCCCCC(=O)N[C@@H](CCC(=O)NCCOCCOCC(=O)NCCOCCOCC(=O)NCCCC[C@H](NC(=O)[C@H](CCC(N)=O)NC(=O)[C@H](CCCNC(=N)N)NC(=O)[C@H](CO)NC(=O)[C@H](CC(C)C)NC(=O)[C@H](CC(=O)O)NC(=O)[C@H](CO)NC(=O)[C@@H](NC(=O)[C@H](Cc1ccccc1)NC(=O)[C@@H](NC(=O)CNC(=O)[C@H](CCC(=O)O)NC(=O)CNC(=O)[C@@H](N)Cc1c[nH]cn1)[C@@H](C)O)[C@@H](C)O)C(=O)N[C@@H](CCC(=O)O)C(=O)N[C@@H](CCC(=O)O)C(=O)N[C@@H](CCC(=O)O)C(=O)N[C@@H](C)C(=O)N[C@H](C(=O)N[C@@H](CCCNC(=N)N)C(=O)N[C@@H](CC(C)C)C(=O)N[C@@H](Cc1ccccc1)C(=O)N[C@H](C(=O)N[C@@H](CCC(=O)O)C(=O)N[C@@H](Cc1c[nH]c2ccccc12)C(=O)N[C@@H](CC(C)C)C(=O)N[C@H](C(=O)N[C@@H](CCCNC(=N)N)C(=O)NCC(=O)NCC(=O)N1CCC[C@H]1C(=O)N[C@@H](CO)C(=O)N[C@@H](CO)C(=O)NCC(=O)N[C@@H](C)C(=O)N1CCC[C@H]1C(=O)N1CCC[C@H]1C(=O)N1CCC[C@H]1C(=O)N[C@@H](CO)C(N)=O)C(C)C)[C@@H](C)CC)C(C)C)C(=O)O` [Example 29] (H-HGEGTFTSDLSRQK([AEEA-AEEA-γGlu-Stearoyl])EEEAVRLFIEWLVRGGPSSGAPPPS-NH2; N-terminus assumed): the EC50 at human GLP-1 receptor (setting [2]) amounted to 0.059 nM. In data set [1], the “Formation rate of peptide related impurities at 40° C.” value was 2.0 %/week.
